Here are results for one compound from patent US10105323B2, “Pharmaceutical dosage form for immediate release of an indolinone derivative” (Boehringer Ingelheim International GmbH, priority 2008, dated 2018).

Where two headings read alike, the source gives them in different places.

Series [1] can be described thus: Phase I trials in cancer patients, dose proportionality of plasma exposure. The class given is in vivo, human. The note with it: single dose and steady state, qd and bid dosing, visual inspection. An excerpt:
However, in three Phase I trials in cancer patients with various advanced solid tumors there was no sign for a deviation from a dose proportional increase in AUC and Cmax of the active substance observed through visual inspection neither after single dose nor at steady state for once and twice daily dosing (FIGS. 9 and 10). […] There was no deviation from dose-proportionality observed for drug plasma concentrations measured before drug administration at steady state (Cpre,ss) in cancer patients in various clinical trials, found through visual inspection.

A short description of series [2]: Phase 2 monotherapy trials in NSCLC or HRPC patients, pre-dose plasma concentrations. It is filed as in vivo, human. The note with it: 150 and 250 mg twice daily, soft gelatin capsule.
For series [3] the following is noted: human, in vivo.
Series [4] is described as follows: Stress, long-term and accelerated stability studies of soft gelatin capsule systems. The class given is physicochemical. The following applies: 1 month at 70° C., long-term (3 years), accelerated (6 months). An excerpt: An advantage of such soft gelatin capsule containing a lipid suspension is that the water uptake into the formulation is very unlikely. The dosage form is divided into three different compartments, namely (a) a hydrophilic capsule shell and (b) the hydrophobic carrier system in which (c) the slightly hygroscopic powder of active substance is suspended. Due to ambient moisture the content of water may vary within these different compartments. It will migrate by diffusion until an equilibrium state is reached. The water content may affect different properties of the drug product, such as the chemical stability of the active substance (predominantly via hydrolysis), the dissolution of the active substance, or the elasticity of the capsule shell. The water uptake in the present system is primarily in the capsule shell. This can be shown by water vapour sorption experiments as well as by the correlation of the mass gain with the softening of the capsule (shown in FIG. 1). […] This is confirmed by the stress stability studies of, for example, 1 month at 70° C., and by long-term (3 years) and accelerated (6 months) stability study results for the systems in accordance with the present invention.

Consider `COC(=O)c1ccc2c(c1)NC(=O)/C2=C(\Nc1ccc(N(C)C(=O)CN2CCN(C)CC2)cc1)c1ccccc1` [active substance, 3-Z-[1-(4-(N-((4-methyl-piperazin-1-yl)-methylcarbonyl)-N-methyl-amino)-anilino)-1-phenyl-methylene]-6-methoxycarbonyl-2-indolinone-monoethanesulphonate], for which, in series [1], the “gMean AUCτ,ss versus dose” value is recorded as “increased in a dose-proportional manner” and the “gMean Cmax,ss versus dose” value was “increased in a dose-proportional manner”. The “pre-dose plasma concentrations at steady state versus dose” value in series [2] was “no obvious deviation from a dose proportional increase”. Besides, in series [3], the “time to reach maximum plasma concentration (median value)” value worked out at 2 h and the “time to reach maximum plasma concentration (range)” value was 0.75 to 6 h. Further, in series [3] (150 mg), the “plasma concentration of the active substance at maximum (gMean value)” value is “about 9 ng/mL”. In series [3] (24 h), the “plasma concentration as % of the maximum plasma concentration” value is given as “about 15%”. Moreover, the “plasma concentration as % of the maximum plasma concentration” value in series [3] (48 h) was 7-8%. The “effect of water uptake on chemical stability” value in series [4] is “not affect the chemical stability”.
